Data taken from the supplement of paper PMC10307832.

How the values were obtained:
Test in all cases: relative viability (nuclei count vs DMSO), 5 days (fraction); higher = more cells survive
CX-5461 + Foretinib = compound: Cc1cnc(CNC(=O)c2c(=O)c3ccc(N4CCCN(C)CC4)nc3n3c2sc2ccccc23)cn1 [CX-5461] + COc1cc2c(Oc3ccc(NC(=O)C4(C(=O)Nc5ccc(F)cc5)CC4)cc3F)ccnc2cc1OCCCN1CCOCC1 [Foretinib] (partner 0.25 µM)
Outline: (§1)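 Nuclei were stained with Hoechst during a one-step fixation (final 0.05% Triton X-100, 1% formaldehyde, 1 ug/ml Hoechst) carried out 5 days after dosing, then counted on 4× images. The cells, lung cancer lines in 1536-well plates, had been dosed by pin tool the day after seeding with one drug alone or a fixed anchor-drug dose plus five library-drug doses (not always all listed) in √10 steps. Relative viability is the nuclei count in treated wells divided by that in vehicle wells, and each value is the median of duplicate plates.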

IMD-0354 + OSI-027 = compound: O=C(Nc1cc(C(F)(F)F)cc(C(F)(F)F)c1)c1cc(Cl)ccc1O [IMD-0354] + COc1cccc2cc(-c3nc([C@H]4CC[C@H](C(=O)O)CC4)n4ncnc(N)c34)[nH]c12 [OSI-027] (partner 0.5 µM)
Outline: as §1

IMD-0354 + Pemetrexed = compound: O=C(Nc1cc(C(F)(F)F)cc(C(F)(F)F)c1)c1cc(Cl)ccc1O [IMD-0354] + Nc1nc2[nH]cc(CCc3ccc(C(=O)N[C@@H](CCC(=O)O)C(=O)O)cc3)c2c(=O)[nH]1 [Pemetrexed] (partner 0.2 µM)
Outline: as §1

IMD-0354 + Lapatinib = compound: O=C(Nc1cc(C(F)(F)F)cc(C(F)(F)F)c1)c1cc(Cl)ccc1O [IMD-0354] + CS(=O)(=O)CCNCc1ccc(-c2ccc3ncnc(Nc4ccc(OCc5cccc(F)c5)c(Cl)c4)c3c2)o1 [Lapatinib] (partner 2 µM)
Outline: as §1

Cell Line | relative viability (CX-5461 + Foretinib; first compound 0.01 µM) | relative viability (CX-5461 + Foretinib; first compound 0.03162 µM) | relative viability (CX-5461 + Foretinib; first compound 0.1 µM) | relative viability (CX-5461 + Foretinib; first compound 0.3162 µM) | relative viability (CX-5461 + Foretinib; first compound 1 µM) | relative viability (IMD-0354 + OSI-027; first compound 0.04 µM) | relative viability (IMD-0354 + OSI-027; first compound 0.1265 µM) | relative viability (IMD-0354 + OSI-027; first compound 0.4 µM) | relative viability (IMD-0354 + OSI-027; first compound 1.265 µM) | relative viability (IMD-0354 + OSI-027; first compound 4 µM) | relative viability (IMD-0354 + Pemetrexed; first compound 0.04 µM) | relative viability (IMD-0354 + Pemetrexed; first compound 0.1265 µM) | relative viability (IMD-0354 + Pemetrexed; first compound 0.4 µM) | relative viability (IMD-0354 + Pemetrexed; first compound 1.265 µM) | relative viability (IMD-0354 + Pemetrexed; first compound 4 µM) | relative viability (IMD-0354 + Lapatinib; first compound 0.04 µM) | relative viability (IMD-0354 + Lapatinib; first compound 0.1265 µM) | relative viability (IMD-0354 + Lapatinib; first compound 0.4 µM) | relative viability (IMD-0354 + Lapatinib; first compound 1.265 µM) | relative viability (IMD-0354 + Lapatinib; first compound 4 µM)
PC-14 | 1 | 1.04 | 1.04 | 0.962 | 0.887 | 0.972 | 0.805 | 0.284 | 0.115 | 0.0708 | 0.128 | 0.116 | 0.105 | 0.14 | 0.0524 | 0.291 | 0.384 | 0.197 | 0.347 | 0.109
RERF-LC-KJ | 0.893 | 0.964 | 0.998 | 0.765 | 0.815 | 0.649 | 0.628 | 0.493 | 0.198 | 0.214 | 0.536 | 0.462 | 0.376 | 0.126 | 0.153 | 0.863 | 0.981 | 0.507 | 0.355 | 0.265
SK-LU-1 | 0.818 | 0.857 | 0.736 |  | 0.326 | 0.32 | 0.305 | 0.277 | 0.181 | 0.193 | 1.11 | 0.777 | 0.44 | 0.225 | 0.249 | 1.07 | 0.851 | 0.376 | 0.47 | 0.27
SK-MES-1 | 1.05 | 1.05 | 1.04 | 1.08 | 0.838 | 0.647 | 0.542 | 0.462 | 0.199 | 0.202 | 1.16 | 1.06 | 0.466 | 0.349 | 0.187 | 0.434 | 0.528 | 0.377 | 0.369 | 0.236
SW 1573 | 0.887 | 0.83 | 0.98 | 0.397 | 0.531 | 0.849 | 0.566 | 0.349 | 0.124 | 0.0864 | 0.872 | 0.799 | 0.271 | 0.131 | 0.0794 | 1.07 | 1.25 | 0.362 | 0.628 | 0.14
